{"source": "patent US20120034193A1", "about": "“TREATMENT OF NEUROTROPHIC FACTOR MEDIATED DISORDERS” (priority 2009, published 2012)", "test_in_all_cases": "Binding assay", "conditions_in_all_cases": "smilagenin 1 μM", "key": {"[1]": {"target": "5-Hydroxytryptamine, 5-HT6 (Homo sapiens, UniProt P50406)", "description": "(§1) The receptor binding was investigated using the following method: Sarsasapogenin was incubated with tissue or cell homogenate that expressed the receptor of interest and a known concentration a radiolabelled compound with affinity for the receptor of interest. After the incubation period the non-bound radiolabelled compound was removed and the amount of specific binding was quantified. The amount of specific binding in the presence and absence of sarsasapogenin were compared and the percent inhibition of the binding of the radiolabelled compound by sarsasapogenin was calculated. The source of the receptor, the incubation conditions, the radiolabelled compound used varied depending on each specific assay.\n(§2) Using the same methods as described above, the binding of smilagenin (1 μM) to the receptors listed in Table 2 below, and the effect of smilagenin on the activity of the enzymes listed in Table 2 below, were investigated."}, "Endothelin ETA": {"target": "Endothelin ETA (Homo sapiens, UniProt P25101)", "description": "as §1, §2"}, "Colchicine": {"test_system": "Colchicine", "description": "as §1, §2"}, "Dopamine D2S": {"target": "Dopamine D2S (Homo sapiens, UniProt P14416)", "description": "as §1, §2"}, "Opiate μ (OP3, MOP)": {"target": "Opiate μ (OP3, MOP) (Homo sapiens, UniProt P35372)", "sequence (P35372 whole entry)": "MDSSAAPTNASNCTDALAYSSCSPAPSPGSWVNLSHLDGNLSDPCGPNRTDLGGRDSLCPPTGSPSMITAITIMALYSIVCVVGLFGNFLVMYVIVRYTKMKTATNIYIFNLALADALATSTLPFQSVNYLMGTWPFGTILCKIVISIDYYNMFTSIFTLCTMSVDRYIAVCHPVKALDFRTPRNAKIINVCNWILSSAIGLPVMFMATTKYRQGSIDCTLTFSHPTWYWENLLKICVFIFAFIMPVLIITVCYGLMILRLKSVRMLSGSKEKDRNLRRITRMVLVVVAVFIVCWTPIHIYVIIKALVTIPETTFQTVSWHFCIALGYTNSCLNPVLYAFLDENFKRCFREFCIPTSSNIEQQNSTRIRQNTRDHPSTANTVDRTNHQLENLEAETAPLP", "description": "as §1, §2"}, "Tachykinin NK2": {"target": "Tachykinin NK2 (Homo sapiens, UniProt P21452)", "sequence (P21452 whole entry)": "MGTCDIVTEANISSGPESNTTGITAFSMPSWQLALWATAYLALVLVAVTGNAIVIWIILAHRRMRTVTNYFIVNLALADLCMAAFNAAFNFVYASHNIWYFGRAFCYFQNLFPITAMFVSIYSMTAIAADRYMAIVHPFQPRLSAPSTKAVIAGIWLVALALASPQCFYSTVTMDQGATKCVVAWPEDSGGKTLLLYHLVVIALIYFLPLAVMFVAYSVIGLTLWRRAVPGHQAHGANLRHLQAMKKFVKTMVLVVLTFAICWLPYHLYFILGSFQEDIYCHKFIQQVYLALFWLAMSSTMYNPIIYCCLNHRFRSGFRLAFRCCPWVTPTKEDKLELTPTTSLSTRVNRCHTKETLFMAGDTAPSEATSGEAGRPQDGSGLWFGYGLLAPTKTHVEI", "description": "as §1, §2"}, "Aldosterone": {"target": "Aldosterone (Rattus norvegicus, UniProt P22199)", "description": "as §1, §2"}, "Melanocortin MC4": {"target": "Melanocortin MC4 (Homo sapiens, UniProt P32245)", "sequence (P32245 whole entry)": "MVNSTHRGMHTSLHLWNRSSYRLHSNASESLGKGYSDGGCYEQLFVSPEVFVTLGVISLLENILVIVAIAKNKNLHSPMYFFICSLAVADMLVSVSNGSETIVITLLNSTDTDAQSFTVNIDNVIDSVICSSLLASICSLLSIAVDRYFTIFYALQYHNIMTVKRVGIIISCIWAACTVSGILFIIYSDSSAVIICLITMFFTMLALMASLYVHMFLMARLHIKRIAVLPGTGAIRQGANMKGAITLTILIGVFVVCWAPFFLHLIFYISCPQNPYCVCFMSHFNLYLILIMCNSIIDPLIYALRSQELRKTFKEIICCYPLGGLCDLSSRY", "description": "as §1, §2"}, "[2]": {"target": "Platelet Activating Factor (PAF) (Homo sapiens, UniProt P25105)", "description": "as §1, §2"}, "Neurotensin NT1": {"target": "Neurotensin NT1 (Homo sapiens, UniProt P30989)", "description": "as §1, §2"}, "Progesterone PR-B": {"target": "Progesterone PR-B (Homo sapiens, UniProt P06401)", "description": "as §1, §2"}, "Opiate δ (OP1, DOP)": {"target": "Opiate δ (OP1, DOP) (Homo sapiens, UniProt P41143)", "sequence (P41143 whole entry)": "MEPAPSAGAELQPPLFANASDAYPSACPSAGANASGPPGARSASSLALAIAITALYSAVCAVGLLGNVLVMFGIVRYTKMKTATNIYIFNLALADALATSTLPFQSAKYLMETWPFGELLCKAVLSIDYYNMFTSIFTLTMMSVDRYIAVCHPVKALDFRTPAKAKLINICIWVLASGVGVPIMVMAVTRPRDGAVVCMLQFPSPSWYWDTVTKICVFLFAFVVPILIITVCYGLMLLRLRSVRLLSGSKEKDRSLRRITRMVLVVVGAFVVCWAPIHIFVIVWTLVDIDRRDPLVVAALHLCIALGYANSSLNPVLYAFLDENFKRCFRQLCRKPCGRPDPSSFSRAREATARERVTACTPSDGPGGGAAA", "description": "as §1, §2"}, "Sigma σ2": {"target": "Sigma σ2 (Rattus norvegicus, UniProt Q5U3Y7)", "description": "as §1, §2"}, "Histamine H3": {"target": "T1, Histamine H3 (Homo sapiens, UniProt Q9Y5N1)", "T1 construct": "host or cells: tissue or cell homogenate (not specified)", "description": "as §1, §2"}, "Interleukin IL-1": {"target": "Interleukin IL-1 (Mus musculus, UniProt P13504)", "description": "as §1, §2"}, "Dopamine D1": {"target": "T2, Dopamine D1 (Homo sapiens, UniProt P21728)", "T2 construct": "host or cells: tissue or cell homogenate, not specified", "description": "as §1, §2"}, "Chemokine CXCR1 (IL-8RB)": {"target": "Chemokine CXCR1 (IL-8RB) (Homo sapiens, UniProt P25025)", "sequence (P25025 whole entry)": "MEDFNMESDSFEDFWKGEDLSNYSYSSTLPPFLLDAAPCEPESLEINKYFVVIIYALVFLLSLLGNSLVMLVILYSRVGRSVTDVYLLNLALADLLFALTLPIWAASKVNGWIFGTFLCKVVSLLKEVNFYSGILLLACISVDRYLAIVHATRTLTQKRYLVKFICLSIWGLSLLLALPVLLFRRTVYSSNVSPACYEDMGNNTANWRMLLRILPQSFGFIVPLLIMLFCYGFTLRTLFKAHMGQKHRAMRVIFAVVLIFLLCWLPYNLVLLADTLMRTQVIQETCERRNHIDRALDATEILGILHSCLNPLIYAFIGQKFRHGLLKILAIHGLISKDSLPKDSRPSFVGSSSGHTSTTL", "description": "as §1, §2"}, "Neuromedin U MNU2": {"target": "Neuromedin U MNU2 (Homo sapiens, UniProt Q9GZQ4)", "description": "as §1, §2"}, "Adrenergic α1D": {"target": "Adrenergic α1D (Homo sapiens, UniProt P25100)", "description": "as §1, §2"}, "Vasopressin V1A": {"target": "T3, Vasopressin V1A (Homo sapiens, UniProt P37288)", "T3 construct": "host or cells: tissue or cell homogenate, not specified", "T3 sequence (P37288 whole entry)": "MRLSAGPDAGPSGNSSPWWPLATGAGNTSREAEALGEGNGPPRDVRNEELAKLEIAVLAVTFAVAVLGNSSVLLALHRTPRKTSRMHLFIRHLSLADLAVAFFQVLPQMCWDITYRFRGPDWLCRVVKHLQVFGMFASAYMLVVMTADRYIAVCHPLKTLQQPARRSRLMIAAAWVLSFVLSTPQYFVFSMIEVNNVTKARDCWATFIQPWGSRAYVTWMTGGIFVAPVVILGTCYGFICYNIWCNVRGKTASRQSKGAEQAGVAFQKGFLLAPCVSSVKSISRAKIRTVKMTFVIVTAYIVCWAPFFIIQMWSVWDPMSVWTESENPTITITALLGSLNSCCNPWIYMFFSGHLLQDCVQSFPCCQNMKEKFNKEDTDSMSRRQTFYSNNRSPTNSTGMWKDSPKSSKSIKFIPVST", "description": "as §1, §2"}, "Adensonine A2A": {"target": "Adensonine A2A (Homo sapiens, UniProt P29274)", "description": "as §1, §2"}, "GABAB1A": {"target": "T4, GABAB1A (Homo sapiens, UniProt Q9UBS5)", "T4 construct": "host or cells: tissue or cell homogenate (not specified)", "description": "as §1, §2"}, "Galanin GAL2": {"target": "T5, Galanin GAL2 (Homo sapiens, UniProt O43603)", "T5 construct": "host or cells: tissue or cell homogenate (not specified)", "description": "as §1, §2"}, "Melanocortin MC5": {"target": "Melanocortin MC5 (Homo sapiens, UniProt P33032)", "description": "as §1, §2"}, "Leukotriene, BLT (LTB4)": {"target": "Leukotriene, BLT (LTB4) (Homo sapiens, UniProt Q15722)", "sequence (Q15722 whole entry)": "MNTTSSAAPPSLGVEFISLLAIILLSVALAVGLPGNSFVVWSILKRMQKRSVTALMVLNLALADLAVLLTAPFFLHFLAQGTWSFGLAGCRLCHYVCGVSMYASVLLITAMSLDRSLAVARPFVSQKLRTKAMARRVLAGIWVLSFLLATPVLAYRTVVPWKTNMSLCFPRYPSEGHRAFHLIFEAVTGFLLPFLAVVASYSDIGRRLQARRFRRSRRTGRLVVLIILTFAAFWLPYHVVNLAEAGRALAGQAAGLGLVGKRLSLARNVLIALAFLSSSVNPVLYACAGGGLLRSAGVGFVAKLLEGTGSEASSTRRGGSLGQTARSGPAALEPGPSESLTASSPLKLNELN", "description": "as §1, §2"}, "Motilin": {"target": "Motilin (Homo sapiens, UniProt O43193)", "description": "as §1, §2"}, "Prostanoid DP": {"target": "Prostanoid DP (Homo sapiens, UniProt Q13258)", "description": "as §1, §2"}, "Angiotensin AT2": {"target": "Angiotensin AT2 (Homo sapiens, UniProt P50052)", "description": "as §1, §2"}, "[3]": {"target": "T6, Transporter, Norepinephrine (NET) (Homo sapiens, UniProt P23975)", "T6 construct": "host or cells: tissue or cell homogenate, not specified", "T6 sequence (P23975 whole entry)": "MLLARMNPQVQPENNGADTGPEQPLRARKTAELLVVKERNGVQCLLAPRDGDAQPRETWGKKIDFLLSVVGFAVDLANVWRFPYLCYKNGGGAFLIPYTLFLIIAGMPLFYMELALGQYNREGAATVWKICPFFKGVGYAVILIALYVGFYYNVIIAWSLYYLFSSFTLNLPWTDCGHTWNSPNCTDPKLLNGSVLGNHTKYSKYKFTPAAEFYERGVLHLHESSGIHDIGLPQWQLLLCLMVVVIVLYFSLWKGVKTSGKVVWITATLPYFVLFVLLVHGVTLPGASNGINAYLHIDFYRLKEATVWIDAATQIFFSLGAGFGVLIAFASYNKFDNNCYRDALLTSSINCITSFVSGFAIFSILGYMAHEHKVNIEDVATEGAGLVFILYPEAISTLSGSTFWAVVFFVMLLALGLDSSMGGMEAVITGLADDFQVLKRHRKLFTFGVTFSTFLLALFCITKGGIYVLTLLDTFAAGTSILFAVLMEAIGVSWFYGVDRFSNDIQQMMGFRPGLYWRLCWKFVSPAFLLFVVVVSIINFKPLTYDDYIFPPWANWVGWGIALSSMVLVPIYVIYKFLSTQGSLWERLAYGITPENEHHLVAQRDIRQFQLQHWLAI", "description": "as §1, §2"}, "Cannabinoid CB1": {"target": "Cannabinoid CB1 (Homo sapiens, UniProt P21554)", "description": "as §1, §2"}, "Muscarinic M5": {"target": "T7, Muscarinic M5 (Homo sapiens, UniProt P08912)", "T7 construct": "host or cells: tissue or cell homogenate, not specified", "description": "as §1, §2"}, "Adrenergic β1": {"target": "Adrenergic β1 (Homo sapiens, UniProt P08588)", "sequence (P08588 whole entry)": "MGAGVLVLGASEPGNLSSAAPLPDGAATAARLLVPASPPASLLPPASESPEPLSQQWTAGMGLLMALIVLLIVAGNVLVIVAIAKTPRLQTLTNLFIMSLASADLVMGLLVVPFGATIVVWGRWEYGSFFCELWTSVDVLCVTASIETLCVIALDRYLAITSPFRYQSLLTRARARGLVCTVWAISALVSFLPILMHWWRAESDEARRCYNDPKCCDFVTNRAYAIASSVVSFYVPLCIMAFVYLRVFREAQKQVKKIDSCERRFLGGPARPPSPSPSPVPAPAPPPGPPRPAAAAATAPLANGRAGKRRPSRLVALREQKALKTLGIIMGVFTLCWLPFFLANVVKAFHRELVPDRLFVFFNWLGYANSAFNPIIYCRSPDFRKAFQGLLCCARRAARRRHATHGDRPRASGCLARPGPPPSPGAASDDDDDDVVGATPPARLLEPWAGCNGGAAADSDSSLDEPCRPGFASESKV", "description": "as §1, §2"}, "Chemokine CCR2B": {"target": "Chemokine CCR2B (Homo sapiens, UniProt P41597)", "sequence (P41597 1-360 isoform P41597-2)": "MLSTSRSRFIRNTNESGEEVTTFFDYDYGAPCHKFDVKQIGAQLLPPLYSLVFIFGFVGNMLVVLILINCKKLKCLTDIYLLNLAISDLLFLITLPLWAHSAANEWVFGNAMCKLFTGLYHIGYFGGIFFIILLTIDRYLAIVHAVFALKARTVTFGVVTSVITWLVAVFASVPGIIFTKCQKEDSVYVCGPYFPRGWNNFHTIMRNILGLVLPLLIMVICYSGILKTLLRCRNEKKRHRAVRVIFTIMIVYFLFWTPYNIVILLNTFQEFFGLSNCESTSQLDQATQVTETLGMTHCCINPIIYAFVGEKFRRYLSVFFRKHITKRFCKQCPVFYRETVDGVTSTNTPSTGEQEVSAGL", "description": "as §1, §2"}, "Bombesin BB3": {"target": "Bombesin BB3 (Homo sapiens, UniProt P32247)", "description": "as §1, §2"}, "Orphanin ORL1": {"target": "Orphanin ORL1 (Homo sapiens, UniProt P41146)", "description": "as §1, §2"}, "Tachykinin NK3": {"target": "Tachykinin NK3 (Homo sapiens, UniProt P29371)", "sequence (P29371 whole entry)": "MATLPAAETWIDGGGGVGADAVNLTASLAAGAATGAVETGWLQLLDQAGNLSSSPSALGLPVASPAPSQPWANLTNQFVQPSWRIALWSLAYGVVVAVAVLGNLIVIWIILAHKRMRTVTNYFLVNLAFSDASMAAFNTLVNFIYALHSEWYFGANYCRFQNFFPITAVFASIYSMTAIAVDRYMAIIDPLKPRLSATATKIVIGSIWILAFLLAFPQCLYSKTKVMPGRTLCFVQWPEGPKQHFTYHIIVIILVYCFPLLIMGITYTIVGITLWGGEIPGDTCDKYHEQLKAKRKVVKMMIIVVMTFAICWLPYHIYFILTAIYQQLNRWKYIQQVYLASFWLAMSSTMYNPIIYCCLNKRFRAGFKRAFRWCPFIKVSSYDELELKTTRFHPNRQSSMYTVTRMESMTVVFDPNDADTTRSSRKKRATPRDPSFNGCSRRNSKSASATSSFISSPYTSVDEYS", "description": "as §1, §2"}, "Somatostatin sstl": {"target": "Somatostatin sstl (Homo sapiens, UniProt P30872)", "sequence (P30872 whole entry)": "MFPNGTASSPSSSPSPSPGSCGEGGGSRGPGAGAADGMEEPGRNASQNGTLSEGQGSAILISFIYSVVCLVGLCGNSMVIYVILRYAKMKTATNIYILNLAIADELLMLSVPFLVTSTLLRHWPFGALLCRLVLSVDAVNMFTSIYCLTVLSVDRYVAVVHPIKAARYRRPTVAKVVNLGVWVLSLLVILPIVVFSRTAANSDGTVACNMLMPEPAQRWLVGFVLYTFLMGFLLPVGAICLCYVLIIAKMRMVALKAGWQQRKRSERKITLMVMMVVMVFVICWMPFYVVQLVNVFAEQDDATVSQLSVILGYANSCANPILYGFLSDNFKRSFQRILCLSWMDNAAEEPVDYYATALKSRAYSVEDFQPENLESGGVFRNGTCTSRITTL", "description": "as §1, §2"}}}
{"smiles": "C[C@@H]1CC[C@@]2(OC1)O[C@H]1C[C@H]3[C@@H]4CC[C@@H]5C[C@@H](O)CC[C@]5(C)[C@H]4CC[C@]3(C)[C@H]1[C@@H]2C", "note": "[Smilagenin, smilagenin]", "values": [{"measurement": "Effect (%)", "setting": "[1]", "result": "NS (NS = No significant response. Significance was taken as ≧30% stimulation or inhibition)"}, {"measurement": "Effect (%)", "setting": "Endothelin ETA", "result": "NS (NS = No significant response. Significance was taken as ≧30% stimulation or inhibition)"}, {"measurement": "Effect (%)", "setting": "Colchicine", "result": "NS (NS = No significant response. Significance was taken as ≧30% stimulation or inhibition)"}, {"measurement": "Effect (%)", "setting": "Dopamine D2S", "result": "NS (NS = No significant response. Significance was taken as ≧30% stimulation or inhibition)"}, {"measurement": "Effect (%)", "setting": "Opiate μ (OP3, MOP)", "result": "NS (NS = No significant response. Significance was taken as ≧30% stimulation or inhibition)"}, {"measurement": "Effect (%)", "setting": "Tachykinin NK2", "result": "NS (NS = No significant response. Significance was taken as ≧30% stimulation or inhibition)"}, {"measurement": "Effect (%)", "setting": "Aldosterone", "result": "NS (NS = No significant response. Significance was taken as ≧30% stimulation or inhibition)"}, {"measurement": "Effect (%)", "setting": "Melanocortin MC4", "result": "NS (NS = No significant response. Significance was taken as ≧30% stimulation or inhibition)"}, {"measurement": "Effect (%)", "setting": "[2]", "result": "NS (NS = No significant response. Significance was taken as ≧30% stimulation or inhibition)"}, {"measurement": "Effect (%)", "setting": "Neurotensin NT1", "result": "NS (NS = No significant response. Significance was taken as ≧30% stimulation or inhibition)"}, {"measurement": "Effect (%)", "setting": "Progesterone PR-B", "result": "NS (NS = No significant response. Significance was taken as ≧30% stimulation or inhibition)"}, {"measurement": "Effect (%)", "setting": "Opiate δ (OP1, DOP)", "result": "NS (NS = No significant response. Significance was taken as ≧30% stimulation or inhibition)"}, {"measurement": "Effect (%)", "setting": "Sigma σ2", "result": "NS (NS = No significant response. Significance was taken as ≧30% stimulation or inhibition)"}, {"measurement": "Effect (%)", "setting": "Histamine H3", "result": "NS (NS = No significant response. Significance was taken as ≧30% stimulation or inhibition)"}, {"measurement": "Effect (%)", "setting": "Interleukin IL-1", "result": "NS (NS = No significant response. Significance was taken as ≧30% stimulation or inhibition)"}, {"measurement": "Effect (%)", "setting": "Dopamine D1", "result": "NS (NS = No significant response. Significance was taken as ≧30% stimulation or inhibition)"}, {"measurement": "Effect (%)", "setting": "Chemokine CXCR1 (IL-8RB)", "result": "NS (NS = No significant response. Significance was taken as ≧30% stimulation or inhibition)"}, {"measurement": "Effect (%)", "setting": "Neuromedin U MNU2", "result": "NS (NS = No significant response. Significance was taken as ≧30% stimulation or inhibition)"}, {"measurement": "Effect (%)", "setting": "Adrenergic α1D", "result": "NS (NS = No significant response. Significance was taken as ≧30% stimulation or inhibition)"}, {"measurement": "Effect (%)", "setting": "Vasopressin V1A", "result": "NS (NS = No significant response. Significance was taken as ≧30% stimulation or inhibition)"}, {"measurement": "Effect (%)", "setting": "Adensonine A2A", "result": "NS (NS = No significant response. Significance was taken as ≧30% stimulation or inhibition)"}, {"measurement": "Effect (%)", "setting": "GABAB1A", "result": "NS (NS = No significant response. Significance was taken as ≧30% stimulation or inhibition)"}, {"measurement": "Effect (%)", "setting": "Galanin GAL2", "result": "NS (NS = No significant response. Significance was taken as ≧30% stimulation or inhibition)"}, {"measurement": "Effect (%)", "setting": "Melanocortin MC5", "result": "NS (NS = No significant response. Significance was taken as ≧30% stimulation or inhibition)"}, {"measurement": "Effect (%)", "setting": "Leukotriene, BLT (LTB4)", "result": "NS (NS = No significant response. Significance was taken as ≧30% stimulation or inhibition)"}, {"measurement": "Effect (%)", "setting": "Motilin", "result": "NS (NS = No significant response. Significance was taken as ≧30% stimulation or inhibition)"}, {"measurement": "Effect (%)", "setting": "Prostanoid DP", "result": "NS (NS = No significant response. Significance was taken as ≧30% stimulation or inhibition)"}, {"measurement": "Effect (%)", "setting": "Angiotensin AT2", "result": "NS (NS = No significant response. Significance was taken as ≧30% stimulation or inhibition)"}, {"measurement": "Effect (%)", "setting": "[3]", "result": "NS (NS = No significant response. Significance was taken as ≧30% stimulation or inhibition)"}, {"measurement": "Effect (%)", "setting": "Cannabinoid CB1", "result": "NS (NS = No significant response. Significance was taken as ≧30% stimulation or inhibition)"}, {"measurement": "Effect (%)", "setting": "Muscarinic M5", "result": "NS (NS = No significant response. Significance was taken as ≧30% stimulation or inhibition)"}, {"measurement": "Effect (%)", "setting": "Adrenergic β1", "result": "NS (NS = No significant response. Significance was taken as ≧30% stimulation or inhibition)"}, {"measurement": "Effect (%)", "setting": "Chemokine CCR2B", "result": "NS (NS = No significant response. Significance was taken as ≧30% stimulation or inhibition)"}, {"measurement": "Effect (%)", "setting": "Bombesin BB3", "result": "NS (NS = No significant response. Significance was taken as ≧30% stimulation or inhibition)"}, {"measurement": "Effect (%)", "setting": "Orphanin ORL1", "result": "NS (NS = No significant response. Significance was taken as ≧30% stimulation or inhibition)"}, {"measurement": "Effect (%)", "setting": "Tachykinin NK3", "result": "NS (NS = No significant response. Significance was taken as ≧30% stimulation or inhibition)"}, {"measurement": "Effect (%)", "setting": "Somatostatin sstl", "result": "NS (NS = No significant response. Significance was taken as ≧30% stimulation or inhibition)"}]}
